Results reported in US11840533B2, “Pyridinone-based epigenetic modifiers and uses thereof” (THE BOARD OF TRUSTEES OF THE UNIVERSITY OF ILLINOIS, priority 2017, dated 2023).

These compounds were tested on fulvestrant-resistant MCF7:5C-FR cells (assay: Fulvestrant-resistant breast cancer cell viability (cell proliferation) assay). Conditions: 120 h, growth inhibition in fulvestrant-resistant MCF-7:CFR cells, 120 hrs.
Format: cell-based
Procedure: For the cell proliferation assay, the fulvestrant-resistant MCF7:5C-FR cells were seeded at about 2000 to about 2500/well in 96-well plates. The next day, compounds were add to the cells at desired serial concentrations form 3 nM to 10 uM. A final 0.1% (v/v) DMSO was used as vehicle control and 1 uM JQ1 was used as positive. The cell were grown in the normal culture condition for 120 hrs. Then the Hoechst 33342 dye were add to each well at a final concentration of 5 μg/ml, and put back to the incubator at 37 C for 90 min. The plates were scanned immediately after the incubation with Celigo (Nexcelcom Biocesnse) for the fluorescence of the nuclear using DAPI channel, and the cell number was counted thought the analysis function of the Celigo software. The normalized cell number to the vehicle control was used to represent the cell proliferation. […] N.D.=Not determined.
For `Cn1ccc2ccnc(O)c21` [Compound 1, 1-methyl-1H-pyrrolo[2,3-c]pyridin-7-ol], the IC50 was > 5 µM.
For `Cn1cc(C(=O)c2cccc(-c3ccc(F)cc3)c2)c2ccnc(O)c21` [Compound 2, (4′-fluoro-[1,1′-biphenyl]-3-yl)(7-hydroxy-1-methyl-1H-pyrrolo[2,3-c]pyridin-3-yl)methanone], the IC50 was 0.157 µM.
In the case of `O=C(c1cccc(-c2ccc(F)cc2)c1)c1c[nH]c2c(O)nccc12` [Compound 3, (4′-fluoro-[1,1′-biphenyl]-3-yl)(7-hydroxy-1H-pyrrolo[2,3-c]pyridin-3-yl)methanone], the IC50 is reported as > 1 µM.
For `Cn1cc(C(=O)c2ccc(-c3ccc(F)cc3)cc2)c2ccnc(O)c21` [Compound 4, (4′-fluoro-[1,1′-biphenyl]-4-yl)(7-hydroxy-1-methyl-1H-pyrrolo[2,3-c]pyridin-3-yl)methanone], the IC50 was > 5 µM.
For `Cn1cc(C(=O)c2ccccc2)c2ccnc(O)c21` [Compound 5, (7-hydroxy-1-methyl-1H-pyrrolo[2,3-c]pyridin-3-yl)(phenyl)methanone], the IC50 was > 5 µM.
For `Cn1cc(C(=O)c2ccccc2Cl)c2ccnc(O)c21` [Compound 6, (2-chlorophenyl)(7-hydroxy-1-methyl-1H-pyrrolo[2,3-c]pyridin-3-yl)methanone], the IC50 was > 5 µM.
Work on `O=C(c1cccc(-c2ccc(F)cc2)c1)c1cn(CCCl)c2c(O)nccc12` [Compound 7, (1-(2-chloroethyl)-7-hydroxy-1H-pyrrolo[2,3-c]pyridin-3-yl)(4′-fluoro-[1,1′-biphenyl]-3-yl)methanone] yielded an IC50 of 1.5 µM.
`Cn1cc(C(OCc2ccc(F)cc2)c2cccc(-c3ccc(F)cc3)c2)c2ccnc(O)c21` (stereo not shown) [Compound 9, 3-((4′-fluoro-[1,1′-biphenyl]-3-yl)((4-fluorobenzyl)oxy)methyl)-1-methyl-1H-pyrrolo[2,3-c]pyridin-7-ol] was tested, and the IC50 was > 5 µM.
For `Cn1cc(C(Oc2ccc(F)cc2)c2cccc(-c3ccc(F)cc3)c2)c2ccnc(O)c21` (stereo not shown) [Compound 10, 3-((4′-fluoro-[1,1′-biphenyl]-3-yl)(4-fluorophenoxy)methyl)-1-methyl-1H-pyrrolo[2,3-c]pyridin-7-ol], the IC50 was 0.3 µM.
In the case of `Cn1cc(C(OCC2CCC2)c2cccc(-c3ccc(F)cc3)c2)c2ccnc(O)c21` (stereo not shown) [Compound 11, 3-((cyclobutylmethoxy)(4′-fluoro-[1,1′-biphenyl]-3-yl)methyl)-1-methyl-1H-pyrrolo[2,3-c]pyridin-7-ol], the IC50 is reported as > 5 µM.
With `CNS(=O)(=O)CCc1ccc(O)cc1C(=O)c1cn(C)c2c(O)nccc12` [Compound 12, 2-(4-hydroxy-2-(7-hydroxy-1-methyl-1H-pyrrolo[2,3-c]pyridine-3-carbonyl)phenyl)-N-methylethane-1-sulfonamide] the IC50 was > 1 µM.
`CNS(=O)(=O)CCc1ccc(OCc2ccc(F)cc2)cc1C(=O)c1cn(C)c2c(O)nccc12` [Compound 13, 2-(4-((4-fluorobenzyl)oxy)-2-(7-hydroxy-1-methyl-1H-pyrrolo[2,3-c]pyridine-3-carbonyl)phenyl)-N-methylethane-1-sulfonamide] was tested, and the IC50 was > 1 µM.
`CNS(=O)(=O)CCc1ccc(OCC2CCC2)cc1C(=O)c1cn(C)c2c(O)nccc12` [Compound 14, 2-(4-(cyclobutylmethoxy)-2-(7-hydroxy-1-methyl-1H-pyrrolo[2,3-c]pyridine-3-carbonyl)phenyl)-N-methylethane-1-sulfonamide] was tested, and the IC50 was > 1 µM.
For `CNS(=O)(=O)CCc1ccc(OC)cc1C(=O)c1cn(C)c2c(O)nccc12` [Compound 15, 2-(2-(7-hydroxy-1-methyl-1H-pyrrolo[2,3-c]pyridine-3-carbonyl)-4-methoxyphenyl)-N-methylethane-1-sulfonamide], the IC50 was > 1 µM.
`Cn1cc(-c2cn(CC(N)=O)c3ccc(-c4ccc(F)cc4)cc23)c2ccnc(O)c21` [Compound 16, 2-(5-(4-fluorophenyl)-3-(7-hydroxy-1-methyl-1H-pyrrolo[2,3-c]pyridin-3-yl)-1H-indol-1-yl)acetamide] was tested, and the IC50 was > 1 µM.
`Cn1cc(-c2c[nH]c3ccc(-c4ccc(F)cc4)cc23)c2ccnc(O)c21` [Compound 17, 3-(5-(4-fluorophenyl)-1H-indol-3-yl)-1-methyl-1H-pyrrolo[2,3-c]pyridin-7-ol] was tested, and the IC50 was > 1 µM.
In the case of `Cn1cc(-c2cn(CC(N)=O)c3ccc(Br)cc23)c2ccnc(O)c21` [Compound 18, 2-(5-bromo-3-(7-hydroxy-1-methyl-1H-pyrrolo[2,3-c]pyridin-3-yl)-1H-indol-1-yl)acetamide], the IC50 is reported as > 1 µM.
With `Cn1cc(-c2c[nH]c3ccc(Br)cc23)c2ccnc(O)c21` [Compound 19, 3-(5-bromo-1H-indol-3-yl)-1-methyl-1H-pyrrolo[2,3-c]pyridin-7-ol] the IC50 was > 1 µM.
Compound `Cn1cc(-c2cc(NS(C)(=O)=O)cc3ccn(Cc4ccc(F)cc4)c23)c2ccnc(O)c21` [Compound 20, N-(1-(4-fluorobenzyl)-7-(7-hydroxy-1-methyl-1H-pyrrolo[2,3-c]pyridin-3-yl)-1H-indol-5-yl)methanesulfonamide] has an IC50 of 1.99 µM.
In the case of `Cc1cc(F)ccc1Cn1ccc2cc(NS(C)(=O)=O)cc(-c3cn(C)c4c(O)nccc34)c21` [Compound 21, N-(1-(4-fluoro-2-methylbenzyl)-7-(7-hydroxy-1-methyl-1H-pyrrolo[2,3-c]pyridin-3-yl)-1H-indol-5-yl)methanesulfonamide], the IC50 is reported as 3.5 µM.
`Cc1cc(F)cc(C)c1Cn1ccc2cc(NS(C)(=O)=O)cc(-c3cn(C)c4c(O)nccc34)c21` [Compound 22, N-(1-(4-fluoro-2,6-dimethylbenzyl)-7-(7-hydroxy-1-methyl-1H-pyrrolo[2,3-c]pyridin-3-yl)-1H-indol-5-yl)methanesulfonamide] was tested, and the IC50 was 0.526 µM.
In the case of `CCS(=O)(=O)Nc1cc(-c2cn(C)c3c(O)nccc23)cc2c1ccn2Cc1ccc(F)cc1` [Compound 24, N-(1-(4-fluorobenzyl)-6-(7-hydroxy-1-methyl-1H-pyrrolo[2,3-c]pyridin-3-yl)-1H-indol-4-yl)ethanesulfonamide], the IC50 is reported as < 0.2 µM.
In the case of `CCS(=O)(=O)Nc1cc(-c2cn(C)c3c(O)nccc23)cc2c1ccn2Cc1ccc(F)cc1C` [Compound 25, N-(1-(4-fluoro-2-methylbenzyl)-6-(7-hydroxy-1-methyl-1H-pyrrolo[2,3-c]pyridin-3-yl)-1H-indol-4-yl)ethanesulfonamide], the IC50 is reported as < 0.2 µM.
In the case of `CCS(=O)(=O)Nc1cc(-c2cn(C)c3c(O)nccc23)cc2c1ccn2Cc1ccc(F)cc1Cl` [Compound 26, N-(1-(2-chloro-4-fluorobenzyl)-6-(7-hydroxy-1-methyl-1H-pyrrolo[2,3-c]pyridin-3-yl)-1H-indol-4-yl)ethanesulfonamide], the IC50 is reported as < 0.2 µM.
`CCS(=O)(=O)Nc1cc(-c2cn(C)c3c(O)nccc23)cc2c1ccn2Cc1c(C)cc(F)cc1C` [Compound 27, N-(1-(4-fluoro-2,6-dimethylbenzyl)-6-(7-hydroxy-1-methyl-1H-pyrrolo[2,3-c]pyridin-3-yl)-1H-indol-4-yl)ethanesulfonamide] was tested, and the IC50 was < 1 µM.
`CCS(=O)(=O)Nc1cc(-c2cn(C)c3c(O)nccc23)cc2c1ccn2Cc1c(C)cccc1C` [Compound 28, N-(1-(2,6-dimethylbenzyl)-6-(7-hydroxy-1-methyl-1H-pyrrolo[2,3-c]pyridin-3-yl)-1H-indol-4-yl)ethanesulfonamide] was tested, and the IC50 was < 1 µM.
`CCS(=O)(=O)Nc1cc(-c2cn(C)c3c(O)nccc23)cc2c1ccn2Cc1ccc(F)cc1F` [Compound 29, N-(1-(2,4-difluorobenzyl)-6-(7-hydroxy-1-methyl-1H-pyrrolo[2,3-c]pyridin-3-yl)-1H-indol-4-yl)ethanesulfonamide] was tested, and the IC50 was < 0.5 µM.
In the case of `CCS(=O)(=O)Nc1cc(-c2cn(C)c3c(O)nccc23)cc2c1cnn2Cc1ccc(F)cc1C` [Compound 32, N-(1-(4-fluoro-2-methylbenzyl)-6-(7-hydroxy-1-methyl-1H-pyrrolo[2,3-c]pyridin-3-yl)-1H-indazol-4-yl)ethanesulfonamide], the IC50 is reported as < 0.2 µM.
With `CCS(=O)(=O)Nc1cc(-c2cn(C)c3c(O)nccc23)cc2c1cnn2Cc1c(C)cc(F)cc1C` [Compound 33, N-(1-(4-fluoro-2,6-dimethylbenzyl)-6-(7-hydroxy-1-methyl-1H-pyrrolo[2,3-c]pyridin-3-yl)-1H-indazol-4-yl)ethanesulfonamide] the IC50 was < 1 µM.
In the case of `CCS(=O)(=O)Nc1cc(-c2cn(C)c3c(O)nccc23)cc2c1cnn2Cc1ccc(F)cc1F` [Compound 34, N-(1-(2,4-difluorobenzyl)-6-(7-hydroxy-1-methyl-1H-pyrrolo[2,3-c]pyridin-3-yl)-1H-indazol-4-yl)ethanesulfonamide], the IC50 is reported as < 0.5 µM.
In the case of `CCS(=O)(=O)Nc1cc(-c2cn(C)c3c(O)nccc23)cc2c1cnn2Cc1ccc(F)cc1Cl` [Compound 35, N-(1-(2-chloro-4-fluorobenzyl)-6-(7-hydroxy-1-methyl-1H-pyrrolo[2,3-c]pyridin-3-yl)-1H-indazol-4-yl)ethanesulfonamide], the IC50 is reported as < 0.5 µM.
For `CCS(=O)(=O)Nc1cc(-c2cn(C)c3c(O)nccc23)cc2c1cnn2Cc1cccc(Cl)c1Cl` [Compound 36, N-(1-(2,3-dichlorobenzyl)-6-(7-hydroxy-1-methyl-1H-pyrrolo[2,3-c]pyridin-3-yl)-1H-indazol-4-yl)ethanesulfonamide], the IC50 was < 1 µM.
`CCS(=O)(=O)Nc1cc(-c2cn(C)c3c(O)nccc23)cc2c1ncn2Cc1ccc(F)cc1` [Compound 37, N-(1-(4-fluorobenzyl)-6-(7-hydroxy-1-methyl-1H-pyrrolo[2,3-c]pyridin-3-yl)-1H-benzo[d]imidazol-4-yl)ethanesulfonamide] was tested, and the IC50 was < 1 µM.

Same assay, conditions: growth inhibition in fulvestrant-resistant MCF-7:CFR cells, 120 hrs
With `O=C(c1cccc(-c2ccc(F)cc2)c1)c1cn(CCCCl)c2c(O)nccc12` [Compound 8, (1-(3-chloropropyl)-7-hydroxy-1H-pyrrolo[2,3-c]pyridin-3-yl)(4′-fluoro-[1,1′-biphenyl]-3-yl)methanone] the IC50 was > 5 µM.
